Test results reported in US7034028B2, “Treatment of inflammatory disorders” (Arakis Ltd., priority 2000, dated 2006).
Like-named read-outs stand apart in the source and are kept apart here.

Legend:
[1] = system: T-cell proliferation; assay: T-cell (lymphocyte) proliferation inhibition; assay type: cell-based, human
[2] = system: TNF; assay: Cytokine inhibition profile: TNF; assay type: cell-based; details: read-out: Inhibition Profile (IC50) TNF
[3] = system: Interleukin-8 (IL-8); assay: Cytokine inhibition profile: IL-8; assay type: cell-based
[4] = system: IL-1; assay: Cytokine inhibition profile: IL-1; assay type: cell-based; details: read-out: Inhibition Profile (IC50) IL-1
[5] = system: IL-2; assay: Cytokine inhibition profile: IL-2; assay type: cell-based; details: read-out: Inhibition Profile (IC50) IL-2
[6] = system: bovine nasal cartilage; assay: Ex vivo IL-2-stimulated bovine nasal cartilage destruction model; assay type: cell-based; design: Inhibition of IL-2-stimulated bovine nasal cartilage destruction: unit not given here; details: for inhibition at 1 µM / inhibition at 10 µM / inhibition at 100 µM: Bos taurus, read-out: Inhibition of IL-2-stimulated bovine nasal cartilage destruction
[7] = system: IL-6; assay: Cytokine inhibition profile: IL-6; assay type: cell-based; details: read-out: Inhibition Profile (IC50) IL-6
[8] = system: IFN gamma; assay: Cytokine inhibition profile: IFN gamma; assay type: cell-based; details: read-out: Inhibition Profile (IC50) IFN gamma
[9] = read-out: Inhibition Profile (IC50) T-cell proliferation

CCN(CCO)CCCC(C)Nc1ccnc2cc(Cl)ccc12 (stereo not shown) [Hydroxychloroquine, hydroxychloroquine]
IC50 ([1]; Homo sapiens, T-cell; read-out: Inhibition Profile (IC50) T-cell proliferation): 16 µM
IC50 [2]: 32.2 µM
Activity against Interleukin-8 (IL-8), in words [3]: inactive
Inhibition Profile (IC50) IL-8 [3]: Inactive
IC50 [4]: 21 µM
IC50 [5]: 94 µM
inhibition at 1 µM ([6]; 1 μM): 4%
inhibition at 10 µM ([6]; 10 μM): 3%
inhibition at 100 µM ([6]; 100 μM): 36%
IC50 [7]: 90 µM
IC50 [8]: 94 µM

O[C@H](c1cc(C(F)(F)F)nc2c(C(F)(F)F)cccc12)[C@@H]1CCCCN1 [(+)Mefloquine, (+)-Erythro-mefloquine]
Suppression of human lymphocyte proliferation, in words [1]: suppresses
IC50 [1, 9]: 11 µM
IC50 [2]: 24 µM
IC50 [3]: 41 µM
IC50 [4]: 68 µM
IC50 [5]: 17 µM
Inhibition of IL-2-stimulated bovine nasal cartilage destruction ([6]; 1 μM): 32
Inhibition of IL-2-stimulated bovine nasal cartilage destruction ([6]; 10 μM): 44
Inhibition of IL-2-stimulated bovine nasal cartilage destruction ([6]; 100 μM): 71
IC50 [7]: 53 µM
IC50 [8]: 17 µM

OC(c1cc(C(F)(F)F)nc2c(C(F)(F)F)cccc12)C1CCCCN1 (single isomer, unassigned; (-)) [(−)Mefloquine]
IC50 [1, 9]: 10 µM
IC50 [2]: 18 µM
IC50 [3]: 63 µM
IC50 [4]: 79 µM
IC50 [5]: 17 µM
Inhibition of IL-2-stimulated bovine nasal cartilage destruction ([6]; 1 μM): 37
Inhibition of IL-2-stimulated bovine nasal cartilage destruction ([6]; 10 μM): 45
Inhibition of IL-2-stimulated bovine nasal cartilage destruction ([6]; 100 μM): 82
IC50 [7]: 43 µM
IC50 [8]: 18 µM

CCN(CC)CCCC(C)Nc1ccnc2cc(Cl)ccc12 (stereo not shown) [Chloroquine, chloroquine]
IC50 ([1]; Homo sapiens, T-cell, read-out: Inhibition Profile (IC50) T-cell proliferation): 13 µM
IC50 [2]: 21 µM
Inhibition Profile (IC50) IL-8 [3]: Inactive
IC50 [4]: 6.3 µM
IC50 [5]: 66 µM
inhibition at 1 µM [6]: 3%
inhibition at 10 µM [6]: 6%
inhibition at 100 µM [6]: 35%
IC50 [7]: 81 µM
IC50 [8]: 63 µM

OC(c1cc(C(F)(F)F)nc2c(C(F)(F)F)cccc12)C1CCCCN1 (racemic) [(+/−) Mefloquine, mefloquine]
Inhibition of IL-2-stimulated bovine nasal cartilage destruction ([6]; 10 μM): 20
